The values below come from PMC5431200, “Identification of Streptococcus cristatus peptides that repress expression of virulence genes in Porphyromonas gingivalis” (Scientific Reports, 2017).

The subject of assay [1] is fimA, mfa1, kgp, rgpA/B, rgpA. Kind of assay: Virulence gene expression in P. gingivalis with ArcA peptides, stated for the gene set, qRT-PCR. The format is cell-based, Porphyromonas gingivalis 33277. To be noted: peptide 16 µM (Table 1); at a lower efficiency than peptide4. How it is done:
(§1) P. gingivalis were homogenized in Trizol Reagent (Invitrogen, Carlsbad, CA) and RNA was purified using an RNeasy mini spin column (Qiagen, Valencia, CA). RNA samples were digested on-column with RNase-free DNase, and total RNA was tested using an Agilent 2100 Bioanalyzer to ensure the quality of the samples. Amplification reactions consisted of a reverse transcription using a Bio-Rad iScript Reverse Transcription Supermix on a TC-3000 thermal cycler (Techne, Staffordshire, ST15 OSA, UK) and a real-time qRT-PCR analysis using a QuantiTect SYBR Green RT-PCR Kit (Qiagen) on an iCycler MyiQ^TM Real-Time PCR detection system (Bio-Rad Laboratories, Inc, Hercules, CA) according to the manufacturer’s instructions. P. gingivalis 16 S rRNA gene was used as a normalizing gene. […] The expression levels of the investigated genes for the test sample were determined relative to the untreated calibrator sample by using the comparative cycle threshold (ΔC T) method. ΔC T was calculated by subtracting the average C T value of the test sample from the average C T value of the calibrator sample, and the value used to calculate the ratio between the two by assuming 100% amplification efficiency.
(§2) Peptides were resuspended in nuclease/proteinase-free PBS, aliquoted, and stored at −20 °C. Inhibitory activity of peptides were determined as described[16] with slight modification. Peptides were mixed with 5 × 10^5 cells of P. gingivalis, spotted onto a TSB blood agar plate, and cultured for 60 h anaerobically. The expression levels of fimbrial and gingipain mRNA or proteins were measured using qRT-PCR or western blot analyses.

The next assay concerns mfa1. Particulars: peptide 16 µM; P. gingivalis 33277 grown TSB; real-time PCR mRNA level relative to absence of peptide = 1 unit; means and SD of three independent experiments. Here is the method: (§3) The IC50 for each gene was established using a Microsoft Excel program with add-in for curve fitting.
as §1, §2

The next assay relates to kgp. To be noted: peptide 16 µM; P. gingivalis 33277 grown TSB; real-time PCR mRNA level relative to absence of peptide = 1 unit; means and SD of three independent experiments. How it is done:
as §3, §1, §2

A further assay relates to rgpA. Particulars: peptide 16 µM; P. gingivalis 33277 grown TSB; real-time PCR mRNA level relative to absence of peptide = 1 unit; means and SD of three independent experiments. Here is the method: as §3, §1, §2
For the next assay, the system named is pgn0128. Kind of assay: pgn0128 (immunoreactive 53 kDa antigen) expression in P. gingivalis with ArcA peptides, real-time qRT-PCR. Format: cell-based, Porphyromonas gingivalis 33277. Particulars: peptide 16 µM; P. gingivalis 33277 grown TSB; real-time PCR mRNA level relative to absence of peptide = 1 unit; means and SD of three independent experiments. Here is the method: as §1, §2
(In general: Quantitative PCR measures a nucleic acid by following its amplification.)

In a further assay the test system is fimA. Kind of assay: fimA expression in P. gingivalis with ArcA peptides, real-time qRT-PCR. Format: cell-based, Porphyromonas gingivalis 33277. Particulars: peptide 16 µM; P. gingivalis 33277 grown TSB; real-time PCR mRNA level relative to absence of peptide = 1 unit; means and SD of three independent experiments. How it is done:
as §3, §1, §2

In another assay the test system is rgpA/B. Nature of the assay: rgpA/B expression (catalytic regions of rgpA/B) in P. gingivalis with ArcA peptides, real-time qRT-PCR. To be noted: peptide 16 µM; P. gingivalis 33277 grown TSB; real-time PCR mRNA level relative to absence of peptide = 1 unit; means and SD of three independent experiments. Format: cell-based, Porphyromonas gingivalis 33277. How it is done:
as §3, §1, §2

Regarding E389LVRGRGGPRCMSMPF [Peptide P5], the “Inhibitory activity on virulence gene expression (in words)” value (“Inhibitory activity” below) in assay [1] is listed as “some inhibitory activity”. In the assay with mfa1, the “Relative expression level mfa1” value was 0.83 ± 0.04. Besides, the “Relative expression level kgp” value in the assay on kgp was determined as 0.96 ± 0.12. Besides, in the assay on rgpA, the “Relative expression level rgpA” value amounted to 0.73 ± 0.06. Also, the “Relative expression level pgn0128” value in the assay on pgn0128 amounted to 0.91 ± 0.06. Also, the “Relative expression level fimA” value with fimA turned out to be 0.97 ± 0.05. Also, the “Relative expression level rgpA/B” value in the assay with rgpA/B was determined as 0.72 ± 0.05.
For the substance I97RGRETKK [Peptide P1], in assay [1], the “Inhibitory activity” value was “some inhibitory activity”. In the assay on mfa1, the “Relative expression level mfa1” value came out at 0.85 ± 0.05. Besides, the “Relative expression level kgp” value in the assay with kgp worked out at 1.06 ± 0.12. For the same substance, in the assay on rgpA, the “Relative expression level rgpA” value was 0.86 ± 0.07. Moreover, in the assay with pgn0128, the “Relative expression level pgn0128” value is 0.96 ± 0.06. In the assay on fimA, the “Relative expression level fimA” value is 0.88 ± 0.08. Also, in the assay with rgpA/B, the “Relative expression level rgpA/B” value turned out to be 0.89 ± 0.05.
On to V208YNREEDTRIEGGDEL [Peptide P3], for which, in assay [1], the “Inhibitory activity” value is “some inhibitory activity”. The “Relative expression level mfa1” value in the assay on mfa1 was 0.82 ± 0.07. For the same substance, in the assay with kgp, the “Relative expression level kgp” value came to 0.99 ± 0.12. Further, the “Relative expression level rgpA” value in the assay with rgpA turned out to be 0.84 ± 0.06. The “Relative expression level pgn0128” value in the assay with pgn0128 was found to be 0.91 ± 0.07. In the assay on fimA, the “Relative expression level fimA” value is recorded as 0.87 ± 0.10. The “Relative expression level rgpA/B” value with rgpA/B is recorded as 0.98 ± 0.06.
